Test results from patent US20220251079A1, “BENZO[B][1,8]NAPHTHYRIDINE ACETIC ACID DERIVATIVES AND METHODS OF USE” (STINGTHERA, INC., priority 2019, published 2022).

Legend:
[1] = molecular target: T1, human STING protein (140-379) (Homo sapiens, UniProt Q86WV6, H232R); assay: Radiometric filtration binding competition assay (WT_FBA_HIS-SUMO-hSWAT); details: read-out: WT-hSWAT IC50
T1 construct: 6XHIS-SUMO-hSTING (140-379); made in house; host or cells: BL-21(DE3) E. coli, pET vector
In short: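 Compounds (2-fold dilutions, 8 points, top 300 μM) were preincubated for 30 min with 0.5 μM recombinant C-terminal STING domain, human residues 140-379 or mouse residues 139-328, His-SUMO tagged. Displacement of a tritium-labelled probe was read by filtration and scintillation counting. Dose-response fits gave IC50, then Ki.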

[2] = molecular target: T2, mouse STING protein (139-328) (Mus musculus, UniProt Q3TBT3); assay: Radiometric filtration binding competition assay (MOUSE_FBA_HIS-SUMO-mSWAT); details: read-out: WT-mSWAT IC50
T2 construct: mouse STING protein (139-328); made in house
T2 sequence (Q3TBT3 139-328): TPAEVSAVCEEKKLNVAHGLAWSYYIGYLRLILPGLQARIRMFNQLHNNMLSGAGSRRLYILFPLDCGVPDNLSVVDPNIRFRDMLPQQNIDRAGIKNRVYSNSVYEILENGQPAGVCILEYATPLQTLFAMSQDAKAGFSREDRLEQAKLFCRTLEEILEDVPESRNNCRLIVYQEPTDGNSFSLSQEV
Procedure: A radiometric filtration binding competition assay was performed to quantify the binding affinity of compounds of the present application for the human or mouse STING protein, or associated HAQ human isoform. The competition format filtration binding assay detects the ability of small molecule compounds from binding to and inhibiting the subsequent binding of a tritiated [H3] […] The resulting dose response was fit by non-linear regression to determine an IC50 value, from which a Ki value for each compound was extrapolated.
Briefly, the recombinant C-terminal ligand binding domain of the human STING protein (140-379) or mouse STING protein (139-328) [0.5 μM] was incubated in the presence of a compound of the present application (8 point, 2 fold dilution starting at 300 μM) for 30 min or under control conditions. […] The resulting complexes were then filtered, dried, and scintillation fluid was added and the remaining radio signal was measured to determine the degree of compound ligand inhibition. This assay format was optimized for both the WT and HAQ isoforms of the human protein and the mouse orthologue protein.
Parameters optimized: • a. Form of protein: 6×HIS-SUMO tag or untagged • b. Concentration of target protein: Minimum concentration that achieved >80 max signal • c. Assay DMSO concentration: 10%-0.1% • d. […]

[3] = molecular target: T3, hSTING-R232 (Homo sapiens, UniProt Q86WV6, H232R); assay: STING Differential Scanning Fluorimetry (DSF) assay, human; type: binding; details: human STING R232-WT, 5 μM protein
T3 construct: recombinant mouse or human STING protein (aa140-379); 6xHis-SUMO elsewhere) (cleaved yes); made in house
T3 sequence (Q86WV6 140-379 H232R): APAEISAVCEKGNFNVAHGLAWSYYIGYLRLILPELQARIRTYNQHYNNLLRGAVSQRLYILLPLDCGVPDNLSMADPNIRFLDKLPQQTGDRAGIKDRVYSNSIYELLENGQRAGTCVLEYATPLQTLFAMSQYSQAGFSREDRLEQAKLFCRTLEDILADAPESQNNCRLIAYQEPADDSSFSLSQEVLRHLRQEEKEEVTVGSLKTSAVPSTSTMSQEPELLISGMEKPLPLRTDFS
In short: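 Purified STING C-terminal domain (aa140-379, R232), human or mouse, at 5 μM in 100 mM NaCl, 30 mM HEPES pH 7.5 with SYBR Orange, was heated at 0.5° C./min. Tm came from dF/dT; ΔTm and FC50 were derived from an 11-point 2-fold series from 300 μM, in duplicate.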

[4] = molecular target: T4, mSTING-R232 (aa139-378) (Mus musculus, UniProt Q3TBT3); assay: STING Differential Scanning Fluorimetry (DSF) assay, mouse; type: binding; details: 5 μM protein
T4 construct: mSTING-R232 (aa139-378); 6xHis-SUMO; made in house
T4 sequence (Q3TBT3 139-378): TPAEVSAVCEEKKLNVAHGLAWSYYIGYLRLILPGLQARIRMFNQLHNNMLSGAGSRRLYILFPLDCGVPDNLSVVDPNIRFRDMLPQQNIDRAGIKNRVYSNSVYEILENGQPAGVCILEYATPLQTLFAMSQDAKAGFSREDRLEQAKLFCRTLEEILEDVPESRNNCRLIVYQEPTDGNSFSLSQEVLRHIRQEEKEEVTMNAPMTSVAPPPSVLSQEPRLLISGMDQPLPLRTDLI
Procedure: A STING DSF assay was performed to determine protein thermostability shift in response to small molecule ligand binding. A STING thermostability shift assay based on differential scanning fluorimetry was used to measure (1) the net shift in melting temperature (ΔTm)between the apo and ligand-bound states of the STING protein and (2) the concentration of the thermal denaturation transition (FC50) as a surrogate measure of binding affinity (Kd). Briefly, recombinant mouse or human STING protein (aa140-379) comprising the C-terminal binding domain (R232-WT) were purified by affinity chromatography and further processed to remove the purification tag, followed by gel filtration to achieve purity >95%. Protein in assay buffer was transferred to a 384 well plate and incubated with the hydrophobic fluorescent dye SYBR Orange. A temperature ramp was applied to the plate and the resulting dye fluorescence was plotted as a function of temperature. The first derivative of this function (dF/dT) was then used to extrapolate the melting temperature of the protein at various concentrations of compound and determine the thermal denaturation profile of a protein/compound complex.
2. 5 μM purified Target STING Protein
4. Buffer: 100 mM NaCl, 30 mM HEPES, pH 7.5
5. Thermal Ramp: 0.5° C./min
7. 11 point, 2 fold dilution, duplicate, 300 μM high concentrations

[5] = molecular target: T5, STING protein (Homo sapiens, UniProt Q86WV6, H232R); assay: Cell based reporter assay of IRF activation (THP1-dual-KI R232, IRF luciferase); details: THP-1; read-out: THP1-dual-KI R232_IRF(Luciferase)_Activity Maximum measured (%)
T5 construct: host or cells: THP-1 dual reporter cells, TMEM173 modified from HAQ to R232 (THP1-dual-KI R232)
T5 sequence (Q86WV6 whole entry H232R): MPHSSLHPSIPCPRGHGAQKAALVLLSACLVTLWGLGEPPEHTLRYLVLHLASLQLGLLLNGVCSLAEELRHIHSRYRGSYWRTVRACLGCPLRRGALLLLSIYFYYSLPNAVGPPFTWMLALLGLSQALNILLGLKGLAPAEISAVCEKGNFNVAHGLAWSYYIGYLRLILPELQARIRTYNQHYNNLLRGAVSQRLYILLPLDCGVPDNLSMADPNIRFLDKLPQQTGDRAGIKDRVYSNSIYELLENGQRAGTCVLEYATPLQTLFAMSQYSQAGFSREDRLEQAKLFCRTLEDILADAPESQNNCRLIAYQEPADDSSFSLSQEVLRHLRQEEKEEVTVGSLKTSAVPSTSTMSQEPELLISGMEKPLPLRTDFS
In short: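 THP-1 monocytes stably carried an ISG54/5×ISRE firefly luciferase IRF reporter, with TMEM173 knock-in H71R A230G Q293R (R232 variant), and there was no PMA pre-activation. Compounds were tested at 8 points, 2-fold, in duplicate from 150 µM. Cell Titer Glo was applied after supernatant removal.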

T1 sequence (Q86WV6 140-379 H232R): as the sequence (Q86WV6 140-379 H232R) above

IC50 [1] | IC50 [2] | WT_DSF_hSWAT Tm Shift (° C.) [3] | MOUSE DSF_6xHIS-SUMO Tm Shift (° C.) [4] | Emax [5] | SMILES
100 to 300 µM | 100 to 300 µM | C (“C” = 2-7° C.) | C (“C” = 5-15° C.) | > 50% | CCOc1c(Cl)ccc2c(=O)c3ccc(C)nc3n(CC(=O)O)c12 [Compound 2]
20 to 100 µM | 20 to 100 µM | D (“D” > 7° C.) | C (“C” = 5-15° C.) | > 50% | CCOc1c(Cl)ccc2c(=O)c3ccc(C(C)C)nc3n(CC(=O)O)c12 [Compound 3]
